Results as given in publication PMC8022858, “Discovery of bone morphogenetic protein 7-derived peptide sequences that attenuate the human osteoarthritic chondrocyte phenotype” (Molecular Therapy. Methods & Clinical Development, 2021).

Assays:
[1] = tested on: human OA knee cartilage explants; experiment: GAG release in medium from cartilage explants; format: cell-based; details: n = 5 donors, 24 h, relative to control (Figure 6B)
Description: To determine whether peptide p[63−82] has the potency to alter chondrocyte behavior in cartilage tissue, rather than isolated HACs, cartilage biopsies from OA knees were cultured in the presence of peptide p[63−82], alongside its scrambled version and full-length BMP7.
Figure 6 Peptide p[63−82] activity on OA knee joint tissues Human OA knee joint tissues were cultured for 24 h in the presence of BMP7, peptide p[63−82], or the scrambled version of peptide p[63−82] and compared to control conditions. (A) Cartilage tissues (n = 7 individual donors) were exposed to shown conditions and analyzed for COL2A1, COL10A1, and COX-2 mRNA expression by quantitative real-time PCR (normalized for 28S rRNA expression and relative to control conditions). (B) GAG release in medium from cartilage tissues (n = 5 individual donors) was determined, and data were calculated relative to the control condition. (C) PGE2 levels in culture supernatant from synovium (n = 5 donors). (D) PGE2 levels in culture supernatant from cartilage tissues from (B) (n = 5 donors). (E) PGE2 levels in culture supernatant from IPFP (n = 5 donors). (F) PGE2 levels in culture supernatant from the meniscus. […] PGE2 levels in conditions were calculated relative to controls for each donor. […] Statistical differences (unpaired two-tailed Student’s t test) were calculated to control condition: ∗p < 0.05, ∗∗p < 0.01, and ∗∗∗p < 0.001. […]

[2] = tested on: human OA cartilage explants; experiment: PGE2 levels in culture supernatant of cartilage explants; format: cell-based; details: n = 5 donors, 24 h, relative to control (Figure 6D)
Description: Figure 6 Peptide p[63−82] activity on OA knee joint tissues Human OA knee joint tissues were cultured for 24 h in the presence of BMP7, peptide p[63−82], or the scrambled version of peptide p[63−82] and compared to control conditions. (A) Cartilage tissues (n = 7 individual donors) were exposed to shown conditions and analyzed for COL2A1, COL10A1, and COX-2 mRNA expression by quantitative real-time PCR (normalized for 28S rRNA expression and relative to control conditions). (B) GAG release in medium from cartilage tissues (n = 5 individual donors) was determined, and data were calculated relative to the control condition. (C) PGE2 levels in culture supernatant from synovium (n = 5 donors). (D) PGE2 levels in culture supernatant from cartilage tissues from (B) (n = 5 donors). (E) PGE2 levels in culture supernatant from IPFP (n = 5 donors). (F) PGE2 levels in culture supernatant from the meniscus. Synovium, IPFP, and meniscus tissues were from the same 5 donors as the cartilage tissues in (B) and (C). PGE2 levels in conditions were calculated relative to controls for each donor. In graphs, error bars represent mean ± SEM; data are presented relative to the control condition for each time point. Statistical differences (unpaired two-tailed Student’s t test) were calculated to control condition: ∗p < 0.05, ∗∗p < 0.01, and ∗∗∗p < 0.001. […]

| Substance | sGAG release from cartilage explants [1] | PGE2 levels from cartilage explants [2] |
| --- | --- | --- |
| H-AAYYSEGESAFPLNSYMNAT-OH [p[63−82]] | no inhibitory effect | reduced |
| BMP7: full-length recombinant bone morphogenetic protein 7 (R&D Systems), used at 1 nM | no inhibitory effect | reduced |
